Test system: PBMCs
Test: LPS-induced IL-8 release in PBMC cells
Assay type: cell-based
Settings: Homo sapiens, LPS-stimulated PBMCs, read-out: IC50 Values for Inhibition of Cytokine Release PBMCs IL-8
Description: Peripheral blood mononuclear cells (PBMCs) from healthy subjects are separated from whole blood using a density gradient (Lymphoprep, Axis-Shield Healthcare). The PBMCs are seeded in 96 well plates and treated with compounds at the desired concentration for 2 hours before addition of 1 ng/mL LPS (Escherichia Coli 0111:B4 from Sigma Aldrich) for 24 hours under normal tissue culture conditions (37° C., 5% CO2). The supernatant is harvested for determination of IL-8 and TNFα concentrations by sandwich ELISA (Duo-set, R&D systems) and read on the fluorescence microplate reader (Varioskan® Flash, ThermoFisher Scientific).

| SMILES | IC50 [nM] |
| --- | --- |
| COCCOCCOCCOc1cc(F)cc(Nc2ncc3cc(-c4cc(C(=O)Nc5cc(C(C)(C)C)cc(NS(C)(=O)=O)c5OC)ccc4C)ccc3n2)c1 [14(l), N-(5-(tert-Butyl)-2-methoxy-3-(methylsulfonamido)phenyl)-3-(2-((3-fluoro-5-(2-(2-(2-methoxyethoxy)ethoxy)ethoxy)phenyl)amino)quinazolin-6-yl)-4-methylbenzamide] | 16.6 |
| C#Cc1cc(Nc2ncc3cc(-c4cc(C(=O)Nc5cc(C(C)(C)C)cc(NS(C)(=O)=O)c5OC)ccc4C)ccc3n2)cc(C(=O)NCCOCCOC)c1 [14(m), N-(5-(tert-Butyl)-2-methoxy-3-(methylsulfonamido)phenyl)-3-(2-((3-ethynyl-5-((2-(2-methoxyethoxy)ethyl)carbamoyl)phenyl)amino)quinazolin-6-yl)-4-methylbenzamide] | 10.4 |
| C#Cc1cc(Nc2ncc3cc(-c4cc(C(=O)Nc5cc(C(C)(C)C)cc(NS(C)(=O)=O)c5OC)ccc4C)ccc3n2)cc(C(=O)NCCOC)c1 [14(n), N-(5-(tert-Butyl)-2-methoxy-3-(methylsulfonamido)phenyl)-3-(2-((3-ethynyl-5-((2-methoxyethyl)carbamoyl)phenyl)amino)quinazolin-6-yl)-4-methylbenzamide] | 11 |
| COc1cc(Nc2ncc3cc(-c4cc(C(=O)Nc5cc(C(C)(C)C)cc(NS(C)(=O)=O)c5OC)ccc4C)ccc3n2)cc(C(=O)O)c1 [14(o), 3-((6-(5-((5-(tert-Butyl)-2-methoxy-3-(methylsulfonamido)phenyl)carbamoyl)-2-methylphenyl)quinazolin-2-yl)amino)-5-methoxybenzoic acid] | 28.4 |
| COCCOCCOCCNC(=O)c1ccc(Nc2ncc3cc(-c4cc(C(=O)Nc5cc(C(C)(C)C)cc(NS(C)(=O)=O)c5OC)ccc4C)ccc3n2)cc1OC [14(p), 4-((6-(5-((5-(tert-Butyl)-2-methoxy-3-(methylsulfonamido)phenyl)carbamoyl)-2-methylphenyl)quinazolin-2-yl)amino)-2-methoxy-N-(2-(2-(2-methoxyethoxy)ethoxy)ethyl)benzamide] | 7.5 |
| COc1c(NC(=O)c2ccc(C)c(-c3ccc4nc(Nc5cccc(N=S(C)(C)=O)c5)ncc4c3)c2)cc(C(C)(C)C)cc1NS(C)(=O)=O [14(q), N-(5-(tert-Butyl)-2-methoxy-3-(methylsulfonamido)phenyl)-3-(2-((3-((dimethyl(oxo)-I6-sulfanylidene)amino)phenyl)amino)quinazolin-6-yl)-4-methylbenzamide] | 6.1 |
| COCCOCCOCCOc1cc(Nc2ncc3cc(-c4cc(C(=O)Nc5cc(C(C)(C)C)cc(NS(C)(=O)=O)c5OC)ccc4C)ccc3n2)cc(OC(F)(F)F)c1 [14(r), N-(5-(tert-Butyl)-2-methoxy-3-(methylsulfonamido)phenyl)-3-(2-((3-(2-(2-(2-methoxy-ethoxy)ethoxy)ethoxy)-5-(trifluoromethoxy)phenyl)amino)quinazolin-6-yl)-4-methylbenzamide] | 49.1 |
| COCCOCCOCCOc1cc(Nc2ncc3cc(-c4cc(C(=O)Nc5cc(C(C)(C)C)cc(NS(C)(=O)=O)c5OC)ccc4C)ccc3n2)cc(C(F)(F)F)c1 [14(s), N-(5-(tert-Butyl)-2-methoxy-3-(methylsulfonamido)phenyl)-3-(2-((3-(2-(2-(2-methoxyethoxy)ethoxy)ethoxy)-5-(trifluoromethyl)phenyl)amino)quinazolin-6-yl)-4-methylbenzamide] | 35.6 |
| COc1c(NC(=O)c2ccc(C)c(-c3ccc4nc(Nc5ccc(S(C)(=N)=O)cc5)ncc4c3)c2)cc(C(C)(C)C)cc1NS(C)(=O)=O (centres unmarked) [14(t), N-(5-(tert-Butyl)-2-methoxy-3-(methylsulfonamido)phenyl)-4-methyl-3-(2-((4-(S-methylsulfonimidoyl)phenyl)amino)quinazolin-6-yl)benzamide] | 67.6 |
| COc1c(NC(=O)c2ccc(C)c(-c3ccc4nc(Nc5cc(C(=O)NCCN6CCOCC6)cc(C(F)(F)F)c5)ncc4c3)c2)cc(C(C)(C)C)cc1NS(C)(=O)=O [14(u), N-(5-(tert-Butyl)-2-methoxy-3-(methylsulfonamido)phenyl)-4-methyl-3-(2-((3-((2-morpholinoethyl)carbamoyl)-5-(trifluoromethyl)phenyl)amino)quinazolin-6-yl)benzamide] | 20.2 |
| COc1cc(Nc2ncc3cc(-c4cc(C(=O)Nc5cc(C(C)(C)C)cc(NS(C)(=O)=O)c5OC)ccc4C)ccc3n2)ccc1C(=O)NCCOCCOCCO [14(v), 4-((6-(5-((5-(tert-Butyl)-2-methoxy-3-(methylsulfonamido)phenyl)carbamoyl)-2-methylphenyl)quinazolin-2-yl)amino)-N-(2-(2-(2-hydroxyethoxy)ethoxy)ethyl)-2-methoxybenzamide] | 4.4 |
| COCCOCCNC(=O)c1ccc(Nc2ncc3cc(-c4cc(C(=O)Nc5cc(C(C)(C)C)cc(NS(C)(=O)=O)c5OC)ccc4C)ccc3n2)cc1OC [14(w), 4-((6-(5-((5-(tert-Butyl)-2-methoxy-3-(methylsulfonamido)phenyl)carbamoyl)-2-methylphenyl)quinazolin-2-yl)amino)-2-methoxy-N-(2-(2-methoxyethoxy)ethyl)benzamide] | 8.4 |
| COc1cc(Nc2ncc3cc(-c4cc(C(=O)Nc5cc(C(C)(C)C)cc(NS(C)(=O)=O)c5OC)ccc4C)ccc3n2)ccc1C(=O)NCC(CO)(CO)CO [14(x), 4-((6-(5-((5-(tert-Butyl)-2-methoxy-3-(methylsulfonamido)phenyl)carbamoyl)-2-methylphenyl)quinazolin-2-yl)amino)-N-(3-hydroxy-2,2-bis(hydroxymethyl)propyl)-2-methoxybenzamide] | 7.7 |
| COc1cc(Nc2ncc3cc(-c4cc(C(=O)Nc5cc(C(C)(C)C)cc(NS(C)(=O)=O)c5OC)ccc4C)ccc3n2)ccc1C(=O)NCCN1CCCOCC1 [14(y), N-(2-(1,4-Oxazepan-4-yl)ethyl)-4-((6-(5-((5-(tert-butyl)-2-methoxy-3-(methylsulfonamido)-phenyl)carbamoyl)-2-methylphenyl)quinazolin-2-yl)amino)-2-methoxybenzamide] | 4.6 |
| COc1cc(Nc2ncc3cc(-c4cc(C(=O)Nc5cc(C(C)(C)C)cc(NS(C)(=O)=O)c5OC)ccc4C)ccc3n2)ccc1C(=O)NCCN1CCN(C)CC1 [14(z), 4-((6-(5-((5-(tert-Butyl)-2-methoxy-3-(methylsulfonamido)phenyl)carbamoyl)-2-methyl-phenyl)quinazolin-2-yl)amino)-2-methoxy-N-(2-(4-methylpiperazin-1-yl)ethyl)benzamide] | 6 |
| COc1cc(Nc2ncc3cc(-c4cc(C(=O)Nc5cc(C(C)(C)C)cc(NS(C)(=O)=O)c5OC)ccc4C)ccc3n2)ccc1C(=O)NCCCN1CC[S+]([O-])CC1 [Example 11, 4-((6-(5-((5-(tert-Butyl)-2-methoxy-3-(methylsulfonamido)phenyl)carbamoyl)-2-methylphenyl)-quinazolin-2-yl)amino)-2-methoxy-N-(3-(1-oxidothiomorpholino)propyl)benzamide] | 7.6 |
| COc1cc(Nc2ncc3cc(-c4cc(C(=O)Nc5cc(C(C)(C)C)cc(NS(C)(=O)=O)c5OC)ccc4C)ccc3n2)ccc1C(=O)NCCN1CCN(CCO)CC1 [Example 13] | 6.7 |
